From US5770625A, “Butyryl-tyrosinyl spermine, analogs thereof and methods of preparing and using same” (priority 1994, dated 1998)

Columns and labels:
[1] = tested on: postjunctional, quisqualate-sensitive glutamate receptors; assay: Response of the retractor unguis muscle to bath-applied L-glutamate; set-up: species or system Schistocerca gregaria
[2] = tested on: postsynaptic QUIS-R of locust leg muscle; assay: Antagonism of neurally-evoked twitch contraction of locust retractor unguis nerve-muscle preparation; set-up: species or system Schistocerca gregaria; conditions: for effect on the neurally-evoked twitch contraction (in words): toxin 1-10 μM
From the text: Electrophysiological studies. The metathoracic retractor unguis nerve-muscle preparation of the locust Schistocerca gregaria was dissected and mounted in a small Perspex bath as described previously (21). The pharmacological activity on the locust nerve muscle preparation, using reduction in neurally evoked twitch amplitude as the measure of activity. Ten fractions were pharmacologically active. […] Further purification of this fraction by reverse-phase HPLC gave four peaks (FIG. 2B), the most pharmacologically was in the major peak (hatched FIG. 2B) . This fraction gave 1.1 mg of toxin as amorphous powder.
The retractor unguis muscle and its nerve were dissected from the metathoracic legs of adult, female locusts (Schistocerca gregaria) and mounted in a Perspex perfusion chamber as described by Usherwood and Machili (21) and Bateman, et al. (14). The muscle was stretched to maximal body length and attached at its tendon or apodeme to a Grass FT 10-strain gauge by a short length of nylon thread. The volume of the muscle bath was about 0.5 ml and its contents could be exchanged within 1 sec. The preparation was perfused continuously at the rate of 5-10 ml min^-1 (except during the application of toxin (see below)) with standard locust saline of the following composition (mM): NaCl, 180; KCl, 10; CaCl2, 2; Hepes, 10; buffered to pH 6.8. The retractor unguis muscle is innervated by two excitatory motoneurons (30) and an inhibitory motoneuron (19,32), but the influence of the latter on the responsiveness of the muscle is slight. Maximal stimulation of the retractor unguis nerve at 0.2 Hz produced a series of twitch contractions of constant amplitude, which were maintained for many hours in good preparations. The test compounds were kept at -20° C. They were dissolved in locust saline on the day of the assay and tested at room temperature. The compounds were applied by pipette to a nerve-muscle preparation such that the contents of the perfusion bath were completely replaced by the test solution. Exposure to the test compound lasted 20 min. Because of the limited availability of some of the compounds, the preparation was not perfused during this period. However, the amplitude of the retractor unguis muscle twitch rarely changed by more than 5-10% over a 20 minute period. During application of the test solutions the stimulation frequency was raised to 0.6 Hz for brief periods to test for stimulus frequency-dependent effects on twitch amplitude (31,37). Dose-inhibition data were obtained by testing the effects, on single retractor unguis muscle preparations, of a range of concentrations of the test compounds. Each concentration of the respective samples was tested at least thee times, and each compound was assayed usually over a 100-fold concentration range (a total of 7-10 concentrations). The standard deviations for twitch inhibition for any given concentration of a toxin rarely exceed 10%. Those compounds for which the deviation was greater than this are identified in Tables 1-7. There was some variation in the potency of PhTX-343 and the test compounds between nerve-muscle preparations. In order to compensate for this, the following procedure was adopted: PhTX-343 was assayed at a variety of concentrations on eight retractor unguis nerve-muscle preparations to give a cumulative dose-inhibition relationship for this toxin. The concentration of PhTX-343 which reduced the twitch contraction by 50% (IC50) was then determined by fitting a curve to the data using the following equation: [formula] where: [T]= toxin concentration, I= % inhibition, Imax =maximum inhibition= 100% and n' represents the Hill slope coefficient. […] The ratio of the actual reduction in twitch amplitude obtained with this single concentration of PhTX-343 and the 50% reduction that was anticipated from the cumulative dose-inhibition relationship for this toxin, was then used as a factor to normalize the data for the test compound. […]

[3] = molecular target: NMDA receptors of rat brain; assay: Inhibition of glutamate-induced [3H]MK-801 binding to synaptic membranes (filtration assay); conditions: read-out: EC50 (the concentration that inhibits 50% of binding) of [3H]MK-801
From the text: Binding PhTX-433 to NMDA Receptor. The NMDA receptor is identified by its high affinity for the compound (+)-5-methyl-10,11-dihydro-5H-dibenzo[a,d]cyclohepten-5,10-imine maleate (MK-801). Th is compound is an anticonvulsant introduced by Merck Sharp & Dohme Co. and is a potent non-competitive antagonist of the NMDA receptor. Binding of [^3 H]MK-801 t o synaptic membranes from rat brain after thorough washing is extremely poor. However, the binding (measured by a filtration assay) is potentiated by glutamate in a dose-dependent manner and reaches maximal potentiation at 10 μM glutamate (26). The increase in binding of [^3 H]MK-801 resulting from addition of glutamate has been used as an index of NMDA recep tor binding.

locust muscle QUIS-R = assay: Voltage dependence of antagonism of locust muscle QUIS-R; conditions: block relieved above about -100 mV
From the text: PhTX-343 binds to the QUIS-R channel, possible at a site located within its selectivity filter (35,36). Other studies in our laboratories have shown that antagonism of locust muscle QUIS-R by PhTX-343 and compound 13, the diiodo analogue, is voltage-dependent, as one might expect for open channel blockers carrying a net positive charge. […] Cation-selective membrane channels are generally envisaged as aqueous pores lined by fixed negative charges. In the case of the amphibian nicotinic acetylcholine receptor the latter are thought to be concentrated in three clusters in the vicinity of the selectively filter (41). […] The relative disposition and number of protonated groups on the toxin seems to be important in determining potency, which appears to be maximized for a given number of protonated groups when these have a constant spacing of three methylenes on their equivalents.

Row | Compound | effect on the response of the muscle to L-glutamate [1] | effect on the neurally-evoked twitch contraction (in words) [2] | EC50 [3] [µM] | voltage dependence of antagonism (locust muscle QUIS-R) | potency compared with natural PhTX-433 (in words) [2] | physiological activity relative to that of PhTX-433, by locust muscle twitch inhibition concentration ([2]; PhTX-433 = 100%) [%] | IC50 ([2]; cumulative dose-inhibition on eight nerve-muscle preparations, read-out: concentration which reduced the twitch contraction by 50% (IC50)) [µM] | increase in potency compared with PhTX-343 [2] [fold]
1 | CCCC(=O)N[C@@H](Cc1ccc(O)cc1)C(=O)NCCCCNCCCNCCCN [Compound 2, PhTX-433] | reduced the response of the retractor unguis muscle to L-glutamate | abolished the twitch | 25 | – | – | – | – | –
2 | CCCC(=O)N[C@@H](Cc1ccc(O)cc1)C(=O)NCCCNCCCCNCCCN [Compound 1, PhTX-343] | – | influenced the twitch contraction in the same qualitative fashion as PhTX-433 | – | voltage-dependent | somewhat less active | 80 | 23 | –
3 | CCCC(=O)N[C@@H](Cc1cc(I)c(O)c(I)c1)C(=O)NCCCNCCCCNCCCN [Compound 13] | – | – | – | voltage-dependent | – | – | – | 4.5
